Laboratory results as given in ChEMBL document CHEMBL1201862, “PubChem BioAssay data set” (2004).
Values belong to the molecule of their own block, whether it stands above or below them. The source made the active and inactive calls.

Key:
[1] = blockers of CRF-binding protein–CRF-R2 complex – cell-based, uHTS hits, 384-well, dose response (AID 651639); format: functional, Homo sapiens; conditions: read-out: IC50_Mean
[2] = molecular target: T1, Corticotropin-releasing factor receptor 2/Corticotropin-releasing factor-binding protein (Homo sapiens, UniProt P24387+Q13324); experiment: activators of CRF receptor 2 with binding protein – uHTS hits, confirmation (AID 602473); format: functional; conditions: read-out: EC50_Mean
T1 sequence (Q13324 whole entry): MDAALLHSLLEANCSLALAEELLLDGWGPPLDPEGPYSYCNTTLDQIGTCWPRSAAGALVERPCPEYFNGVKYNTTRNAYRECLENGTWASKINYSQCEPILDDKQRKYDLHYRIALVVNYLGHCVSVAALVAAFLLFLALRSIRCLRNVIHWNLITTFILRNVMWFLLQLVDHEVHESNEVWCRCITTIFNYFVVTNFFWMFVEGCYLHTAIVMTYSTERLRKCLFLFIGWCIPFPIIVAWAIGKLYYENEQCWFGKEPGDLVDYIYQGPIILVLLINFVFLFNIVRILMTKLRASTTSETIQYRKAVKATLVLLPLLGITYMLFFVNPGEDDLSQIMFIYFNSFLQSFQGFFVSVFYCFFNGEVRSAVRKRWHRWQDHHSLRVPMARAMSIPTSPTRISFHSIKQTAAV
T1 sequence (P24387 whole entry): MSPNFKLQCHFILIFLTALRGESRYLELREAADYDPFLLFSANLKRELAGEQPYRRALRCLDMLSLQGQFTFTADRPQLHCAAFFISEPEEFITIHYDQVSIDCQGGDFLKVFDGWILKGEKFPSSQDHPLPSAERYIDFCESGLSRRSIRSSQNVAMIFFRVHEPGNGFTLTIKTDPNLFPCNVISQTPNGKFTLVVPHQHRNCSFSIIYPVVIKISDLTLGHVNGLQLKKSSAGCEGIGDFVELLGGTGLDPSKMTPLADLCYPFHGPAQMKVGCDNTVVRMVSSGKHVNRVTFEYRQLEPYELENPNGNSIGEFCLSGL

[3] = molecular target: T1, Corticotropin-releasing factor receptor 2/Corticotropin-releasing factor-binding protein; experiment: Dose Response confirmation of uHTS hits for small molecule antagonists of the CRF-binding protein and CRF-R2 receptor complex.; format: functional; conditions: read-out: IC50_Mean
[4] = molecular target: Photoreceptor-specific nuclear receptor (Homo sapiens, UniProt Q9Y5X4); format: functional, cell-based;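 note: CHO-S cells with Gal4-NCOR and VP16-NR2E3 two-hybrid luciferase reporter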
[5] = test system: INS1; experiment: INS-1E survival protection against cytokine death – cell-based, luminescence, retest, dose response (AID 449756); format: functional; conditions: Rattus norvegicus;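 note: cell death triggered by IL-1 beta plus TNF-alpha plus IFN-gamma mixture; protective hits raise ATP signal compared with cytokine alone wells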
[6] = molecular target: Protein Wnt-3a (Mus musculus, UniProt P27467); experiment: antagonism of Wnt3a pathway luciferase reporter – Wnt-LIGHT cells, luminescence, selectivity assay for Gli-SUFU antagonist project, dose response (AID 651570); format: functional; conditions: read-out: IC50_Mean;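 note: Wnt-LIGHT reporter cells stimulated with conditioned medium from Wnt3a-producing cells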
[7] = NIH-3T3 fibroblast cytotoxicity, dose response, cytotoxicity control, cell-based, fluorescence, Alamar Blue, secondary assay (AID 2327); format: functional;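 note: NIH-3T3 mouse fibroblasts cultured with fluconazole at 8 µg/mL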
[8] = molecular target: T2, Microphthalmia-associated transcription factor (Homo sapiens, UniProt O75030); experiment: reducers of TRPM1 reporter luminescence, concentration series – cell-based, SK-MEL-5, cherry-picked, set 3, MITF inhibitor project, dose response (AID 493073); format: functional;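 note: SK-MEL-5 melanoma cells with luciferase driven by the MITF target TRPM1 promoter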
T2 sequence (O75030 whole entry): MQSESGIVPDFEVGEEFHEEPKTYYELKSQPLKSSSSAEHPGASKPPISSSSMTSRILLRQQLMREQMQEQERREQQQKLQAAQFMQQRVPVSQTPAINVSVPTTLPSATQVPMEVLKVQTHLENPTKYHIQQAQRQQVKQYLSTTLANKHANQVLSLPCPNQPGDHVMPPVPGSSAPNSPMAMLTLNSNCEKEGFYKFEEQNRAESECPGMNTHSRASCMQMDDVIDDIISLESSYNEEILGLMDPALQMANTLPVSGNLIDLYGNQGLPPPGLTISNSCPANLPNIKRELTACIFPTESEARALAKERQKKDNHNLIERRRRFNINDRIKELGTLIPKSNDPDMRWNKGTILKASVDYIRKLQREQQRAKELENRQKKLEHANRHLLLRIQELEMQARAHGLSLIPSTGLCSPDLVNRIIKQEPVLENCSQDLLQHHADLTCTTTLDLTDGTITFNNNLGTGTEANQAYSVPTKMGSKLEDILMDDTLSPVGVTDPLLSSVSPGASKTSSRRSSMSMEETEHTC

[9] = fluconazole-exposed Candida albicans growth modulators – fluorescence, retest, confirmation (AID 2467); format: functional, cell-based
[10] = molecular target: T3, DNA repair protein RAD52 homolog (Homo sapiens, UniProt P43351); format: functional, biochemical
T3 sequence (P43351 whole entry): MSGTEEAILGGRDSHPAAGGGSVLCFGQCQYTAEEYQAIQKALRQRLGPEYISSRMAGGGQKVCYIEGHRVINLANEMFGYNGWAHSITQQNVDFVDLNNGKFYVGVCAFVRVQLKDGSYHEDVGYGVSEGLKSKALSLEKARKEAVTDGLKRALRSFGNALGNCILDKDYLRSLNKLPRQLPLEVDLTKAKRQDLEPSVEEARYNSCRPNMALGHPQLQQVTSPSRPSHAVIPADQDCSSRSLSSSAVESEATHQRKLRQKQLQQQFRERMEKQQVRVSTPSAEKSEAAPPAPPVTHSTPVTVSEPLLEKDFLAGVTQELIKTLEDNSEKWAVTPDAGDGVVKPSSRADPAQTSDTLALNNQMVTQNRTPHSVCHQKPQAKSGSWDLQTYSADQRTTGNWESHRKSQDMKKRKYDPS

[11] = molecular target: T4, Apoptotic protease-activating factor 1 (Homo sapiens, UniProt O14727); experiment: SAR analysis of small molecule Activators of Apaf-1 in a Fluorescent assay.; format: functional; conditions: read-out: EC50_Mean;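 note: caspase-3 cleavage of fluorogenic Rh110 DEVD substrate downstream of apoptosome activation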
T4 sequence (O14727 whole entry): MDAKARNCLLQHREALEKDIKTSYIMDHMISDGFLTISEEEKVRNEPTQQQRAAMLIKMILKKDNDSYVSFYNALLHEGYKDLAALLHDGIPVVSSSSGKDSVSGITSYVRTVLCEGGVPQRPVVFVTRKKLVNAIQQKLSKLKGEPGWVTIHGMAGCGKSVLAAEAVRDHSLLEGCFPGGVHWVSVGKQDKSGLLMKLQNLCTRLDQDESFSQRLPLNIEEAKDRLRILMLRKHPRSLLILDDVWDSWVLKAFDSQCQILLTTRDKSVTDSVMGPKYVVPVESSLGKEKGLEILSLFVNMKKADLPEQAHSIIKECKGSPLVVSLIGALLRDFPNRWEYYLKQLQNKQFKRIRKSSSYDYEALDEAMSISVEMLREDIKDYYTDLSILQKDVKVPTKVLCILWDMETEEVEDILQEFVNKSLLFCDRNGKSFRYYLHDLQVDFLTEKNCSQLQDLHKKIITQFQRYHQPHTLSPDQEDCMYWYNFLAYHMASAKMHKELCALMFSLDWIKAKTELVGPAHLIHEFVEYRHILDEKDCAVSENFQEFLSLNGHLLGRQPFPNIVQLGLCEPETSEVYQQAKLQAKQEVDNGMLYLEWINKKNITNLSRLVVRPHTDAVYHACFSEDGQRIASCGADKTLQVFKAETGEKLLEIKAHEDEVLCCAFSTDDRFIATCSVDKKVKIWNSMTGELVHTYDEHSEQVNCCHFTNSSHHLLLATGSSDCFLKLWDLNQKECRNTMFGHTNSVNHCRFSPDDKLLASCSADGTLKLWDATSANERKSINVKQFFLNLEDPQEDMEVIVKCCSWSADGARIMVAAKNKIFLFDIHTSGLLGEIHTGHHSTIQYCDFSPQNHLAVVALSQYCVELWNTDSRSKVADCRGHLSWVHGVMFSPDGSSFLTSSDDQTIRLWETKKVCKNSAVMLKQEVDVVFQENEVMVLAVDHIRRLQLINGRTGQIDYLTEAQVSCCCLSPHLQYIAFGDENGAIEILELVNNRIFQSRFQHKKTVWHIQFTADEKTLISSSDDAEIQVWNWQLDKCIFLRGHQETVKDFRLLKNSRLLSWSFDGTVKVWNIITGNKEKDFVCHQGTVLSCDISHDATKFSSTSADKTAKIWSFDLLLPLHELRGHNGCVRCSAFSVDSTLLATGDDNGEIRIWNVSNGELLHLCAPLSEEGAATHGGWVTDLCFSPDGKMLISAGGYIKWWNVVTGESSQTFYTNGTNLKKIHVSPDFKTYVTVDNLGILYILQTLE

[12] = molecular target: T5, Short transient receptor potential channel 4 (Mus musculus, UniProt Q9QUQ5); experiment: block of DAMGO-driven TRPC4 calcium entry – cell-based, HEK293 TRPC4/mu-opioid, Fluo-4 calcium, dose response (AID 434942); format: functional;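 note: potency of inhibitors blocking the TRPC4 calcium response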
T5 sequence (Q9QUQ5 whole entry): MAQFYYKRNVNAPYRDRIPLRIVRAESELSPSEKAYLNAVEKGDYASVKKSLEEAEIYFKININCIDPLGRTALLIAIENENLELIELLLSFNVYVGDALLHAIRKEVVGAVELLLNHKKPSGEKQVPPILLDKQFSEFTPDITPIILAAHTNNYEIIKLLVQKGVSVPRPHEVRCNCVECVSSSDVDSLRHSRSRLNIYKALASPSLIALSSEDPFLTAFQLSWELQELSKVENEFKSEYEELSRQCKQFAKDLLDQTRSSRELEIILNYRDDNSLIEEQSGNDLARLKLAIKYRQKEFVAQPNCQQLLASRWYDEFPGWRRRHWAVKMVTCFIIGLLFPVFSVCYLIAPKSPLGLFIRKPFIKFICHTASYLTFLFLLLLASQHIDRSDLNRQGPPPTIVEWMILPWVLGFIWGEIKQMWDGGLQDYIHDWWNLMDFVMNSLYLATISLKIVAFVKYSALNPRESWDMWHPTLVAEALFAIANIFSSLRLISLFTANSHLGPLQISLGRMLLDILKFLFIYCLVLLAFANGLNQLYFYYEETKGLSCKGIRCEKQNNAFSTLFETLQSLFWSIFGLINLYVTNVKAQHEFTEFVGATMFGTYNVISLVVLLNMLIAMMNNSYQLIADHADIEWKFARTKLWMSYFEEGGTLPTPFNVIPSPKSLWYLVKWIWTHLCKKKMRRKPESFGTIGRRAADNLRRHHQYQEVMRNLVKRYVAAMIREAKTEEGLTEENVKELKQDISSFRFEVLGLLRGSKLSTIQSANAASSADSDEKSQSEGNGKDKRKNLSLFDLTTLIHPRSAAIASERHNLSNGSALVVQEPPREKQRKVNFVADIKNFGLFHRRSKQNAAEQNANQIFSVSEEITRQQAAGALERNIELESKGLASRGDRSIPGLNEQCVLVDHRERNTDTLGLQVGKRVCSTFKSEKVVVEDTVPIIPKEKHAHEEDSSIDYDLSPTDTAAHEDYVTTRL

[13] = nonselective StAR promoter luciferase inhibitors – cell-based, luminescence, luciferase reporter, counter-screen for LRH-1 inverse agonist project, dose response (AID 651969); format: functional

Sequence of Protein Wnt-3a (P27467 whole entry): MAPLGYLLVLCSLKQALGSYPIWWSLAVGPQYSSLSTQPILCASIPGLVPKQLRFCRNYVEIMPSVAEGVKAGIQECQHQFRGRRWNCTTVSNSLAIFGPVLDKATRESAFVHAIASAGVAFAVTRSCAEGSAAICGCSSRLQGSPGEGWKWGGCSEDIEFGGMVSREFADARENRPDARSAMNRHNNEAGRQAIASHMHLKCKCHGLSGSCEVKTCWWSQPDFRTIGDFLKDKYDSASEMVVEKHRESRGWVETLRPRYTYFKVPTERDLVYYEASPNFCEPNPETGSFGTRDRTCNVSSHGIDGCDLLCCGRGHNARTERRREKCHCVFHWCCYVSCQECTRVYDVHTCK
Sequence of Photoreceptor-specific nuclear receptor (Q9Y5X4 whole entry, the tested form may be a part): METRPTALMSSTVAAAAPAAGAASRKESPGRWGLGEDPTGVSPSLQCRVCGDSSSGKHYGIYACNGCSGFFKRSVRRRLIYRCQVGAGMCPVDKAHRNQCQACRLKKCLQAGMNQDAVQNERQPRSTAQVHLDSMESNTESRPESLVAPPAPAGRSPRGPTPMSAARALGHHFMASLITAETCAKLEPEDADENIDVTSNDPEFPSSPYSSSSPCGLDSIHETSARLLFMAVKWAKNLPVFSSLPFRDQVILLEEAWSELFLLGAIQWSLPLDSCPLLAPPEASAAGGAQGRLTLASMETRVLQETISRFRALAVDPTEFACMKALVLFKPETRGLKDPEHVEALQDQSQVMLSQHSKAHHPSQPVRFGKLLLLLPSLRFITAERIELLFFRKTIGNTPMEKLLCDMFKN

IC50 [1]: > 20 µM (inactive)
EC50 [2]: > 53 µM (inactive)
IC50 [3]: 3.31 µM (active)
SMILES: CCOc1ccc(/N=c2\scc(-c3ccc(OC)cc3)n2CCO)cc1

SMILES: CCCCCCCCn1c(=O)c(C(=O)OC)c(N)c2ccccc21
IC50 [4]: 6.4 µM (active)
AC50 [5]: 5.55 µM (active)

IC50 [6]: 3.91 µM (active)
SMILES: Cc1nnsc1C(=O)NC1CCCc2c1cnn2-c1ccc(F)cc1F (stereo not given)

SMILES: C(#Cc1ccccc1)C[N+]1(CC#Cc2cccc3ccccc23)CCCC1
EC50 [7]: > 150 µM (inconclusive)
AC50 [8]: 6.21 µM (active)
EC50 [9]: > 38 µM (not active)
AC50 [10]: 15.2 µM (active)
AC50 [5]: 6.44 µM (active)
IC50 [6]: 5.07 µM (active)

EC50 [11]: > 100 µM (inactive)
SMILES: O=C(Nc1nc2ccsc2c(=O)s1)c1cccs1

IC50 [4]: 4.47 µM (active)
SMILES: CCCCOc1ccc(CONS(=O)(=O)c2ccc(NC(C)=O)cc2)cc1Cl

IC50 [1]: 12.9 µM (active)
EC50 [2]: 31.4 µM (active)
IC50 [3]: 6.04 µM (active)
EC50 [12]: 6.68 µM (active)
SMILES: Cc1ccc(C(C)(C)C)cc1S(=O)(=O)Nc1nc2ccccc2nc1Cl

SMILES: Cc1cccc(NC(=O)CSc2nc(O)c3c[nH]nc3n2)c1C
IC50 [13]: 35.9 µM (inactive)

EC50 [11]: > 100 µM (inactive)
SMILES: Cc1ccc(O)c(NC(=O)C2CC(c3ccc(F)cc3)=NO2)c1 (stereo not given)
